Measured values reported in patent US11266613B2 (priority 2017, dated 2022).
Several values for one entry are separate records, joined by “and”; a condition that tells them apart may be missing. Equal entries are not always repeated. Where two headings read alike, the source gives them in different places.

What was measured:
[1] = system: Langendorff preparation; conditions: cited from earlier work; for inhibition of VF: administered before or after ischaemia onset, Langendorff preparation
[2] = system: anaesthetised rats, myocardial infarction
[3] = system: pentobarbitone anaesthetized mice; conditions: bolus dose of 100 mg/kg i.v.
Source text: An initial toxicity study was undertaken in pentobarbitone anaesthetized mice.

[4] = system: Rat isolated heart; assay: Rat isolated heart, 30 min regional ischaemia (coronary ligation), VF incidence (Example 2); conditions: for reduction of incidence of ischaemia-induced VF: 30 min regional ischaemia, test solutions 15 μM and 150 μM
Experimental: Model Choice: • Rat isolated heart, 30 min regional ischaemia (coronary ligation) • High baseline susceptibility to VF • Scope for detection of VF suppression by drugs

[5] = system: anaesthetised rats, induced infarction, VF; conditions: for VF-free survival after 30 minutes: 2 mg/kg bolus and 0.5 mg/kg/min infusion, IV before induced infarction, control 0%
Source text: Method: • Randomized, blinded and fully powered trial • Groups of n=6 anaesthetised rats • Test solutions delivered by IV to rat tail vein before induced infarction

[6] = system: arrhythmias which occur early after occlusion of the left coronary artery
Experimental: Groups of female rats, each in the weight range of 200-300 g, were studied.
The protocol used followed that used in many previous studies seeking dose-related data for novel compounds and reference drugs.
Five minutes after the start of drug delivery the left main coronary artery was occluded (J Mol Cell Cardiol 19: 399-419 1987). This caused a region of ischaemia (verified by the occluded zone, OZ) which was maintained for the duration of the observation period (30 minutes) during which severe arrhythmias caused by the resultant cardiac ischaemia occur (J Mol Cell Cardiol 19: 399-419 1987).
This study was not randomized but was progressed from a low dose to a high dose.
Outcomes were evaluated versus a historical data base of 140 rats treated identically (0.8% saline infusion and coronary artery ligation).
Procedures: • From the ECG, the PR and QT and heart rate were determined. • From a femoral artery catheter, blood pressure (BP) was monitored. • Arrhythmic Score (AS) was determined by counting the number of ventricular premature beats (VPBs) and the occurrence of ventricular tachycardia (VT) and fibrillation (VF) (Cardiovasc Res 22: 656-665, 1988). • Occlusion Zone (OZ) was measured by weight (g) using a dye exclusion method (J Mol Cell Cardiol 19: 399-419 1987).

[7] = system: pentobarbitone anaesthetized rats; conditions: 60 mg/kg i.v. over 20 minutes
Experimental: A study was carried out to assess tolerability in pentobarbitone anaesthetized rats.

[8] = system: patients at high risk of VT or VF following myocardial infarction; conditions: cited from earlier work
[9] = LNO 3 mg/kg total dose i.v. over 20 min, group mean
[10] = LNO 10 mg/kg total dose i.v. over 20 min, group mean
[11] = LNO 10 mg/kg total dose i.v. over 20 min, individual rat
[12] = LNO 30 mg/kg total dose i.v. over 20 min, group mean
[13] = LNO 100 mg/kg total dose i.v. over 20 min, group mean

For CC[N+]([O-])(CC)CC(=O)Nc1c(C)cccc1C [LNO, lidocaine N-oxide], the “inhibition of VF” value [1] is given as “equi-effective”, the “dose-limiting bradycardia or PR interval elongation” value [1] is given as “didn't induce” and the survival rate ([2]; anaesthetised rats, LNO directly to the bloodstream prior to myocardial infarction) is given as 100%. The “signs of excessive reduction in contractile function, decreased heart rate, complete heart block or asystole” value ([2]; rat, in vivo) was “no signs”, the “tolerability of the dose” value [3] was “well tolerated” and the “effect on PR” value [4] was “did not show any effect”. The “effect on heart rate” value [4] was “only a small effect”, the “reduction of incidence of ischaemia-induced VF” value ([4]; isolated rat heart) was “equally as effective as lidocaine” and the “VF-free survival after 30 minutes” value [5] was 67%. For the same molecule, the “effectiveness against VF” value ([5]; anaesthetised rats, IV) was “effective”, the “time post-infarction before a VF event” value ([5]; anaesthetised rats, IV) was “longer time” and the bradyarrhythmias ([5]; rat, in vivo, iv) was “did not”. For the same molecule, the “therapeutic window from the threshold effective dose” value ([6]; 3 mg/kg to 30 mg/kg i.v.) was “at least ten-fold”, the “AS (arrhythmia score)” value [6, 9] was 4.5 and the “VF (ventricular fibrillation)” value [6, 9] was 0.25 number of episodes. The “VT (ventricular tachycardia)” value [6, 9] was 7.75 number of episodes, the “AS (arrhythmia score)” value ([6]; LNO 3 mg/kg total dose i.v. over 20 min, individual rat) was 7 and 3 (2×) and 5 and the “AS (arrhythmia score)” value [6, 10] was 1.67. For the same molecule, the “VT (ventricular tachycardia)” value [6, 10] was 3 number of episodes, the “AS (arrhythmia score)” value [6, 11] was 1 (2×) and 3 and the “VF (ventricular fibrillation)” value [6, 11] was 0 number of episodes. For the same molecule, the “AS (arrhythmia score)” value [6, 12] was 2, the “VF (ventricular fibrillation)” value [6, 12] was 2 number of episodes and the “VT (ventricular tachycardia)” value [6, 12] was 22 number of episodes. The “AS (arrhythmia score)” value [6, 13] was 2.67, the “VF (ventricular fibrillation)” value [6, 13] was 0.33 number of episodes and the “VT (ventricular tachycardia)” value [6, 13] was 3.67 number of episodes. For the same molecule, the “Occl 10’ BP (blood pressure)” value ([6]; LNO 100 mg/kg total dose i.v. over 20 min, individual rat) was “Dead”, the “arrhythmia score (AS) versus control” value ([6]; each tested dose: 3, 10, 30 and 100 mg/kg, 30 min regional ischaemia, vs historical controls) was “significantly reduced” and the off-target actions ([6]; highest dose of LNO, 100 mg/kg) was “one death due to convulsion”. The “dose up to which no off-target effects are seen” value ([6]; rat, in vivo, iv) was 30 mg/kg, the “lowest dose at which antiarrhythmic activity is seen (threshold effective dose)” value ([6]; regional ischaemia, i.v.) was 3 mg/kg and the “tolerability of the dose” value [7] was “tolerated”.

In the case of O=C(NCC1CCCCN1)c1cc(OCC(F)(F)F)ccc1OCC(F)(F)F (centres unmarked) [flecainide], the “increase in the risk of mortality” value [8] is given as “three-fold”.

In the case of CCN(CC)CC(=O)Nc1c(C)cccc1C [lidocaine, reference compound], the “inhibition of VF” value [1] is listed as “equi-effective”, the “PR interval versus control” value ([4]; 15 μM, during 30 min ischaemia) is listed as “higher” and the “reduction of incidence of ischaemia-induced VF” value ([4]; isolated rat heart) is listed as “equally effective”. For the same molecule, the “effect on PR” value ([4]; isolated rat heart, conclusion) was “did show an impact”, the “VF-free survival after 30 minutes” value [5] was 67% and the bradyarrhythmias ([5]; anaesthetised rats, IV) was “led to bradyarrhythmias”. For the same molecule, the “effectiveness against VF” value ([5]; anaesthetised rats, IV) was “effective”.
